Results from patent US6468977B1, “Thiadiazole compounds useful as inhibitors of cysteine activity dependent enzymes” (Apotex Inc., priority 1998, dated 2002).
pKi: −log10 of the molar value. Counter-ions that a name gives are not always drawn.

Tests used:
Cathepsin B = target: T1, Cathepsin B (Homo sapiens, UniProt P07858); assay: Inhibition of cathepsin B, enzyme inactivation kinetics; format: biochemical; conditions: 25° C.; for k3 / k3/Ki (second order rate of inhibition) / kinact/KI: pH 6.0; for pKi: pH 6.0, substrate N-Cbz-Phe-Arg 7-amido-4-methylcoumarin 100 μM; for kinact/KI: read-out: k3/Ki (second order rate of inhibition)
T1 construct: purchased Athens Research and Technology, Inc
Protocol: Enzyme assays and kinetic measurements.
Enzyme regeneration. Cathepsin B (Athens Research and Technology, Inc.) was regenerated by incubation with 2.5 mM dithioerythritol, 2.5 mM EDTA and 0.005% (v/v) Brij-35 in 50 mM potassium phosphate pH 6.0 for 5 min. at 25° C. The excess of dithioerythritol was removed by size exclusion chromatography on a NAP-10 column (Pharmacia) equilibrated with 20 mM sodium acetate pH 5.0 containing 10 mM EDTA. Enzyme activated in this way was used within several hours.
Measurement of inactivation constants:
The reactions were incubated at 25° C. […] The reaction progress curves were recorded continuously over five half-lives. […] Briefly, the reaction progress curves were analyzed by non-linear regression to the exponential equation (2) and pseudo-first order rate coefficients (kapp.) were calculated for each inhibitor concentration. [drawing 36] Fluorescence=Ae^−k^app.^t+B (2)
Second order rate for inhibition (ki/Ki), ki and Ki were determined from equation (3) by plotting (I/kapp.) vs. [I]; [formula]
where Km is the Michaelis-Menten constant, [I] is inhibitor concentration and [S] is substrate concentration.

[1] = tested on: IL-1 induced proteoglycan degradation of articular cartilage; assay: IL-1-induced proteoglycan degradation of articular cartilage explants in vitro; format: cell-based, calf; conditions: 1×10^−6 M, IL-1 50 ng/ml, 72 h, p=0.023
Protocol: The effect of Apo501 on IL-1 (interleukin) induced proteoglycan degradation of articular cartilage from normal calf joints was investigated in-vitro. Articular cartilage was sliced aseptically from the distal forelimb joints of less than 6-month old calves. […] The pooled, punched cartilage was washed and incubated in 20 ml of Ham's F12 medium with 5% FBS and 3% antibiotics for 72 hr at 37° C. for recovery.
Recovered explants were washed and replaced with a fresh medium. 20 μl (10 μCi/ml) of sodium [^35S] sulfate was added and cartilage explants incubated for 72 h at 37° C. to radiolabel proteoglycans. The explants was washed thoroughly (5 times) to remove free radioisotope and incubated in serum free, F-12 medium (3% Ab) overnight. Explants were then incubated in quadruplicate in fresh, serum free mediums containing varied concentrations of Apo-501 (10^−7, 10^−6, 10^−5, and 10^−4) for 24 h. […] The extent of proteoglycan degradation in each cartilage treated with different concentrations of Apo501 was determined by measuring the radioactivity of [^35S] sulfate-glycosaminoglycans by a liquid scintillation counter. Sample of 100 μl medium was added to 5 ml of scintillation cocktail (Ready Safe, Beckmann) and counted. Proteoglycan degradation was expressed as radiolabelled glycosaminoglycans released into the media (counts per min per ml) per dry weight (mg) of cartilage.

Transglutaminase = assay: Inhibition of transglutaminase, hydroxamate procedure, residual activity; format: biochemical; conditions: 100 μM (0.1 mM, 10% MeOH), one hour of incubation
Protocol: Inhibition of transglutaminase by compounds of formula I (Enzyme Assay).
Transglutaminase activity is measured by the […] hydroxamate procedure (J. Biol. Chem., 1971, 246, 1093). The tested compounds were dissolved in methanol and added to a buffered solution of purified Transglutaminase to give a final concentration of 0.1 mM (10% MeOH). After on hour of incubation, the solution was assayed for residual activity using the standard activity assay.

Structure (SMILES)	k3 (Cathepsin B) [s⁻¹]	k3/Ki (second order rate of inhibition) (Cathepsin B) [M⁻¹ s⁻¹]	pKi (Cathepsin B)	melting point [°C]	kinact/KI (Cathepsin B) [M⁻¹ s⁻¹]	Inhibition of the enzyme (residual activity) (Transglutaminase)	Reduction of IL-1-induced degradation of newly synthesized proteoglycan [1] [%]
COc1nsc(NC(=O)[C@H](Cc2ccccc2)NC(=O)OCc2ccccc2)n1 [apo201, 3-methoxy-5-(N-carbobenzyloxy-L-phenylalaninamido)-[1,2,4]thiadiazole]	0.013	658	4.68				
CC[C@H](C)[C@H](Nc1nc(C(=O)c2ccccc2)ns1)C(=O)N1CCC[C@H]1C(=O)O [Example 16, N-[3-benzoyl-[1,2,4]thiadiazol-5-yl]-L-iso-leucyl-L-proline]				132 to 134			
CC[C@H](C)[C@H](Nc1nc(OC)ns1)C(=O)N1CCC[C@H]1C(=O)O [Example 13, N-(3-methoxy-[1,2,4]thiadiazol-5-yl)-L-iso-leucyl-L-proline]				112 to 114			
CC[C@H](C)[C@H](Nc1nc(OC)ns1)C(=O)N1CCC[C@H]1C(=O)OC [Example 12A, N-(3-methoxy-[1,2,4]thiadiazol-5-yl)-L-iso-leucyl-L-proline methyl ester]				129 to 130			
COc1nsc(NC(=O)N[C@@H](CC(C)C)C(=O)N2CCC[C@H]2C(=O)O)n1 [apo503]	0.014	36	3.41				
CC(C)C[C@H](Nc1nc(-c2ccccc2)ns1)C(=O)N1CCC[C@H]1C(=O)O [apo5O9, N-(3-Phenyl-[1,2,4]thiadiazol-5-yl)-L-leucyl-L-proline]	0.013		4.13		175		
COc1nsc(N[C@@H](CC(C)C)C(=O)N2CCC[C@H]2C(=O)O)n1 [Example 11A, N-(3-methoxy-[1,2,4]thiadiazol-5-yl)-L-leucyl-L-proline]				89 to 92			

The next lines start with results.

k3 (Cathepsin B) [s⁻¹]	k3/Ki (second order rate of inhibition) (Cathepsin B) [M⁻¹ s⁻¹]	pKi (Cathepsin B)	melting point [°C]	kinact/KI (Cathepsin B) [M⁻¹ s⁻¹]	Inhibition of the enzyme (residual activity) (Transglutaminase)	Structure (SMILES)	Reduction of IL-1-induced degradation of newly synthesized proteoglycan [1] [%]
0.015		5.59		5630		COc1nsc(N[C@@H](CC(C)C)C(=O)N2CCC[C@H]2C(=O)O)n1 [apo501, N-{(3-methoxy)-[1,2,4]thiadiazol-5-yl}-L-leucyl-L-proline. tris(hydroxymethyl)methylamine salt]	60
0.089		3.52		293		CC(C)CC(Nc1nc(C(=O)O)ns1)C(=O)N1CCCC1C(=O)O (stereo not shown) [apo310]	
0.032	84	3.44				COc1nsc(NC(=O)NC(CC(C)C)C(=O)NCCC(C)C)n1 (stereo not shown) [apo1073, 5-{3-methoxy-1,2,4-thiadiazolyl}carbamoyl-leucyl isoamylamide]	
0.026		3.35		55		Cc1nsc(N[C@@H](CC(C)C)C(=O)N2CCC[C@H]2C(=O)O)n1 [apo510, N-(3-Methyl-[1,2,4]thiadiazol-5-yl)-L-leucyl-L-proline]	
0.032		4.43	161 to 162	864	completely inhibits	COc1nsc(NC(=O)[C@H](C)NC(=O)[C@H](Cc2ccccc2)NC(=O)OCc2ccccc2)n1 [apo504, 3-methoxy-5-(N-carbobenzyloxy-L-phenylalanyl-L-alaninamido)-[1,2,4]thiadiazole]	
